Measurements as given in PubChem BioAssay (NCI).
Where “and” joins values, the source holds several entries; their conditions need not be identical. Equal values may be shown once.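 Compound exposure: 48 hours, 5 concentrations, 96-well plates. The concentration for 50% growth inhibition is given as GI50. TGI denotes the concentration required for complete inhibition of growth.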

How the values were obtained:
Assay in all cases: NCI-60 cell line screen, 48 h
KM20L2 colon = tested on: KM20L2 colon
SN12C renal = tested on: SN12C renal
OVCAR-5 ovarian = tested on: OVCAR-5 ovarian
M19-MEL melanoma = tested on: M19-MEL melanoma
UACC-62 melanoma = tested on: UACC-62 melanoma
DMS 273 small cell lung = tested on: DMS 273 small cell lung
DMS 114 small cell lung = tested on: DMS 114 small cell lung
786-0 renal = tested on: 786-0 renal
M14 melanoma = tested on: M14 melanoma
MDA-MB-435 = tested on: MDA-MB-435
MDA-MB-231 breast = tested on: MDA-MB-231 breast
ACHN renal = tested on: ACHN renal

SMILES	GI50 (KM20L2 colon)	TGI (KM20L2 colon)	GI50 (SN12C renal)	TGI (SN12C renal)	TGI (OVCAR-5 ovarian)	TGI (M19-MEL melanoma)	GI50 (UACC-62 melanoma)	TGI (UACC-62 melanoma)	TGI (DMS 273 small cell lung)	TGI (DMS 114 small cell lung)	TGI (786-0 renal)	TGI (M14 melanoma)	TGI (MDA-MB-435)	TGI (MDA-MB-231 breast)	TGI (ACHN renal)
[Cl][Pt+2][Cl].[NH-]C1CCCCC1[NH-] (stereo not drawn)	8.07 µM and 2.19 µM and 1.36 µM	44.6 µM and > 52.9 µM and 29.6 µM	8.78 µM and 6.22 µM and 2.62 µM	> 100 µM	78.4 µM and > 100 µM and 14.3 µM	23.9 µM and 25.7 µM and 10.6 µM	11.7 µM and 10.1 µM and 1.47 µM	43.4 µM and > 100 µM and 17.3 µM							
Cc1ccc(C(C)(C)C[P+](C)(c2ccccc2)c2ccccc2)cc1		> 88.8 µM		> 86.3 µM	> 100 µM	> 89 µM		61.4 µM	23.8 µM	35.6 µM					
O=[N+]([O-])c1ccc(S[C@@H]2[C@H]3c4c(-c5ccccc5)[nH]c(-c5ccccc5)c4[C@@H]2C[C@H]3Cl)cc1				22.2 µM	> 100 µM			37.3 µM			23.8 µM	> 100 µM	27.8 µM	> 100 µM	> 100 µM
CC(=O)Nc1ccc(C(=O)NN2C(=O)C(Cl)C2c2ccc([N+](=O)[O-])cc2)cc1 (stereo not drawn)		> 100 µM		> 100 µM	> 100 µM	> 100 µM		> 100 µM	> 100 µM		> 100 µM	> 100 µM			> 100 µM
CC(=O)OCC1OC(n2c3c(c(-c4cccc5ccccc45)c(C#N)c2=S)CCCC3)C(OC(C)=O)C(OC(C)=O)C1OC(C)=O (stereo not drawn)				> 100 µM	> 100 µM			> 100 µM			> 100 µM	> 100 µM	> 100 µM	> 100 µM	> 100 µM
C=C(CCC(C)C1CCC2C3=C(C(=O)CC21C)C1(C)CCC(=O)[C@@H](C)C1CC3=O)C(C)C(=O)O (stereo partly drawn)				> 100 µM	> 100 µM			> 100 µM			37.8 µM	> 100 µM	> 100 µM	> 100 µM	88.6 µM
CCNc1ccc2c(c1)Cc1ccccc1-2				> 100 µM	> 100 µM			> 100 µM			> 100 µM	> 100 µM	> 100 µM	> 100 µM	> 100 µM
COC1OC(Cc2nnc(C)o2)C(OCc2ccccc2)C(OCc2ccccc2)C1OCc1ccccc1 (stereo not drawn)				85.3 µM	> 100 µM			32.3 µM			> 100 µM	> 100 µM	39.2 µM	> 100 µM	76.8 µM
COc1ccc(NC(=O)C(=O)Cc2nc3ccc([N+](=O)[O-])cc3[nH]c2=O)c(OC)c1		> 100 µM			> 100 µM	> 100 µM		> 100 µM	> 100 µM	> 100 µM	> 100 µM	> 100 µM			> 100 µM
COc1nc(N(C)C)nc2c1n(C)c[n+]2C				> 100 µM	> 100 µM			> 100 µM			> 100 µM	> 100 µM	> 100 µM	> 100 µM	> 100 µM
COc1ccc(N(C)C(=O)N(C)c2ccc([N+](=O)[O-])cc2)cc1				> 100 µM	> 100 µM			> 100 µM			> 100 µM	> 100 µM	18.6 µM	> 100 µM	> 100 µM
Cc1cc(C)c(P2C(=C(O[Si](C(C)C)(C(C)C)C(C)C)C(C)(C)C)C2(c2ccccc2)c2ccccc2)c(C)c1 (stereo not drawn)				> 100 µM	> 100 µM			> 100 µM			> 100 µM	> 100 µM	> 100 µM	> 100 µM	> 100 µM
Nc1nc(-c2ccccc2N=NN2CCCC2)nc2ccccc12				3.43 µM	4.66 µM			3.77 µM			4.77 µM	12.5 µM	6.7 µM	3.63 µM	11.7 µM
COc1ccc2c(c1)C(N)=C(c1ccccc1)C2=O				> 100 µM	> 100 µM			> 100 µM			> 100 µM	> 100 µM	> 100 µM	> 100 µM	> 100 µM
CC[N+](C)(CC)CCC(O)(c1ccccc1)c1ccccc1				> 100 µM	> 100 µM			> 100 µM			> 100 µM	> 100 µM	> 100 µM	> 100 µM	> 100 µM
Cc1ccccc1-n1c(C)nc2c1C(=O)c1ccccc1C2=O				> 100 µM	> 100 µM	48.5 µM		> 100 µM	> 100 µM	87 µM	> 100 µM	> 100 µM			> 100 µM
Cc1ccc(C(=O)N/N=C(\N=Nc2cccc(Cl)c2)c2ccc(N(CCC#N)CCC#N)cc2C)cc1				> 100 µM	> 100 µM			> 100 µM			> 100 µM	> 100 µM	> 100 µM	> 100 µM	> 100 µM

SMILES	GI50 (KM20L2 colon)	TGI (KM20L2 colon)	GI50 (SN12C renal)	TGI (SN12C renal)	TGI (OVCAR-5 ovarian)	TGI (M19-MEL melanoma)	GI50 (UACC-62 melanoma)	TGI (UACC-62 melanoma)	TGI (DMS 273 small cell lung)	TGI (DMS 114 small cell lung)	TGI (786-0 renal)	TGI (M14 melanoma)	TGI (MDA-MB-435)	TGI (MDA-MB-231 breast)	TGI (ACHN renal)
Cc1ccc(C(=O)O)c(CC2Cc3c(C)cccc3C2=O)c1 (stereo not drawn)				> 100 µM	> 100 µM			> 100 µM			> 100 µM	> 100 µM	> 100 µM	> 100 µM	> 100 µM
CCOC(=O)c1c(CN2CCNCC2)nc2ccccc2c1-c1ccccc1				28.2 µM	31.1 µM			28.2 µM			25.3 µM	28.2 µM	28.5 µM	29.3 µM	30.4 µM
Cc1ccc(C2=NOC(=O)[C@@H]3CCCC[C@@H]23)cc1				> 100 µM	> 100 µM			> 100 µM			> 100 µM	> 100 µM	> 100 µM	> 100 µM	> 100 µM
CC12N=NN(c3ccc([N+](=O)[O-])cc3)C1(O)c1ccccc1C2=O (stereo not drawn)		> 100 µM		> 100 µM		> 100 µM		> 100 µM	> 100 µM	> 100 µM	> 100 µM	> 100 µM			> 100 µM
OCC1OC(n2cnc3cncnc32)C(O)C1O (stereo not drawn)		5.17 µM		3.97 µM	4.02 µM	14.1 µM		2.46 µM	2.38 µM	2.57 µM					
Clc1ccc(Cc2nc3ccccc3nc2-c2cccc(Br)c2)cc1				10.1 µM	16.6 µM			4.01 µM			3.48 µM	5.17 µM	4.71 µM	14.1 µM	3.44 µM
CC(C)=CCC/C(C)=C/CC/C(C)=C/Cc1c(O)c2ccccc2oc1=O		> 100 µM		> 100 µM		> 100 µM		> 100 µM	> 100 µM	> 100 µM	> 100 µM	> 100 µM			> 100 µM
N=c1oc2ccc3ccccc3c2cc1C(N)=O				> 100 µM	> 100 µM			> 100 µM			> 100 µM	> 100 µM	> 100 µM	> 100 µM	> 100 µM
CCOC(=O)C(NC(=O)N(C1=NCC(C)S1)C1CCCCC1)(OC)C(F)(F)F (stereo not drawn)				29.3 µM	> 100 µM			> 100 µM			28.9 µM	> 100 µM	> 100 µM	> 100 µM	89.9 µM
COC(=O)C1CCC(=O)N1C(=O)Cc1ccc(OC)cc1 (stereo not drawn)		> 100 µM		> 100 µM	> 100 µM	> 100 µM		> 100 µM	> 100 µM	> 100 µM		> 100 µM			> 100 µM
O=C1C=CC(=O)C(CNc2ccc(C(=O)OC34CC5CC(CC(C5)C3)C4)cc2)=C1				17.8 µM	39.2 µM			16.5 µM			23 µM	31.1 µM	23 µM	36.2 µM	19.1 µM
Cc1cc(=O)n2nc(SCc3ccccc3)sc2n1				> 100 µM	> 100 µM			> 100 µM			> 100 µM	> 100 µM	> 100 µM	> 100 µM	56.2 µM
CCc1c(Cc2cccc3ccccc23)n2c(nc1=O)SCC2OCCO (stereo not drawn)				> 100 µM	> 100 µM			> 100 µM			> 100 µM	> 100 µM	38.4 µM	> 100 µM	> 100 µM
c1ccc(CCN2CCc3[nH]c4ccccc4c3C2)cc1				62.2 µM	67 µM			> 10 µM			31.6 µM	34 µM	36 µM	87.7 µM	96.7 µM
c1ccc(CCNCc2ccco2)nc1				> 100 µM	> 100 µM			> 100 µM			> 100 µM	> 100 µM	> 100 µM	> 100 µM	> 100 µM
CC(=O)O[C@@H]1C[C@@]23C[C@@]24CC[C@H](OC2OCC(O)C(O)C2O)C(C)(C)[C@@H]4CC=C3[C@]2(C)C[C@@H]3OC4(C[C@@H](C)[C@@H]3[C@@]12C)OC(O)[C@@]1(C)O[C@@H]41 (stereo partly drawn)				> 100 µM	> 100 µM			54.8 µM			63.1 µM	> 100 µM	> 100 µM	44 µM	> 100 µM
